Measured values reported in paper PMC10885593, “Evidence that inositol 1,4,5-trisphosphate 3-kinase and inositol 1,3,4,5-tetrakisphosphate are negative regulators of platelet function” (Research and Practice in Thrombosis and Haemostasis, 2024).

Tests used:
Test in all cases: competition pull-down with PIP3 beads, Western blot
Format in all cases: binding
BTK [1] = target: T1, BTK (Homo sapiens, UniProt Q06187); conditions: human platelet NP40 lysate; competes with bead-bound PIP3 (about 800 nM); pH 7.4, 4 °C, 5 mM EDTA, 5 mM EGTA
T1 construct: native full-length protein in NP40 lysate of washed human platelets, captured on PIP3 beads, Western blot read-out

RASA3 = target: T2, RASA3 (Homo sapiens, UniProt Q14644); conditions: read-out: % inhibition of extraction at 40 μM
T2 construct: native full-length protein in NP40 lysate of washed human platelets, captured on PIP3 beads, Western blot read-out
T2 sequence (Q14644 2-834): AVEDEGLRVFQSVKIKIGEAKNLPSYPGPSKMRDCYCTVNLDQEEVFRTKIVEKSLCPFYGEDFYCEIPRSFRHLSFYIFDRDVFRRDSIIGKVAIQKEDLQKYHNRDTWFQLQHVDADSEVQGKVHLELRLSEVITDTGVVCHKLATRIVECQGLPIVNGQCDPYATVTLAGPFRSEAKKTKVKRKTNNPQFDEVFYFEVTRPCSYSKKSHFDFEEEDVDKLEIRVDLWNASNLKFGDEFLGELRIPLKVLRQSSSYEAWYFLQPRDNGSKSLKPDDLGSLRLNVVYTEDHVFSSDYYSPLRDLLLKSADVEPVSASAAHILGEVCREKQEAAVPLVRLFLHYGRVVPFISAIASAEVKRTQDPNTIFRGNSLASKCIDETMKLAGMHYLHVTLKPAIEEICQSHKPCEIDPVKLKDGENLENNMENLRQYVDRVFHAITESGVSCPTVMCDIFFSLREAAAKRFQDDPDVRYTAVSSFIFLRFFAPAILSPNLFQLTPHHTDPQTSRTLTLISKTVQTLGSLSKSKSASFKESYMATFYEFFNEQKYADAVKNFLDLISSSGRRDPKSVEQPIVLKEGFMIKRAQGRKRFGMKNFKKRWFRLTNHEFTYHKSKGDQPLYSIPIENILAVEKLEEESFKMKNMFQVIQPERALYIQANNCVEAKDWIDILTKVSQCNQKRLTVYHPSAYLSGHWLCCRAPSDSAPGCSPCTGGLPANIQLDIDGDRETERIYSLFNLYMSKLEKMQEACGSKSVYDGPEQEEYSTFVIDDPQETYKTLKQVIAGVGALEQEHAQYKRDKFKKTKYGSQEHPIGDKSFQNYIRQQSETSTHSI

BTK [2] = target: T1, BTK; conditions: human platelet NP40 lysate; competes with bead-bound PIP3 (about 800 nM); pH 7.4, 4 °C, 5 mM EDTA, 5 mM EGTA; remark: listed apart in the source

T1 sequence (Q06187 2-659): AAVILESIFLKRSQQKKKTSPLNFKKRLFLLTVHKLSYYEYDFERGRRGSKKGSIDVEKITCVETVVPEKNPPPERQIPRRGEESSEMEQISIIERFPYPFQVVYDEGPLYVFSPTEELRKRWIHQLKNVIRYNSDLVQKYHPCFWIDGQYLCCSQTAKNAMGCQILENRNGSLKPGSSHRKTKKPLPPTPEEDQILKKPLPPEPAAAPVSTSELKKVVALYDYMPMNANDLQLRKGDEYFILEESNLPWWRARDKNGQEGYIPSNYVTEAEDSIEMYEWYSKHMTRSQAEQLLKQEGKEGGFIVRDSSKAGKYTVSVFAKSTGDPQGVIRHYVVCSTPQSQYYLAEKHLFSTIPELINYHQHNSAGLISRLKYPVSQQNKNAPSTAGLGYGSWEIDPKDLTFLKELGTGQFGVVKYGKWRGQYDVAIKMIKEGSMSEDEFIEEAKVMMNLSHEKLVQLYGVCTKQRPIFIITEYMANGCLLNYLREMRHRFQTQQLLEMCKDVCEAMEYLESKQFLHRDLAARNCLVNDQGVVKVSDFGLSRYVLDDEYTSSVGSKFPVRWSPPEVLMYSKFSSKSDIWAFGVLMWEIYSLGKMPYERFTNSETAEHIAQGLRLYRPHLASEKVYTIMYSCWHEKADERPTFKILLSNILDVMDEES

| inhibition at 40 µM (RASA3) [%] | SMILES | inhibition of extraction by PIP3 beads at 40 μM (BTK [1]) | inhibition of extraction by PIP3 beads (BTK [2]) |
| --- | --- | --- | --- |
|  | CCCCCCCC(=O)OC[C@H](COP(=O)(O)O[C@H]1[C@H](O)[C@@H](OP(=O)(O)O)[C@H](OP(=O)(O)O)[C@@H](OP(=O)(O)O)[C@H]1O)OC(=O)CCCCCCC [DiC8-PIP3] | exogenously added DiC8-PIP3 was marginally less potent at competing with PIP3 beads |  |
| > 90 | O=P(O)(O)OC1[C@H](O)[C@H](OP(=O)(O)O)C(OP(=O)(O)O)[C@H](OP(=O)(O)O)[C@H]1O (stereo partly drawn) [IP4] |  | IP4 also reduced extraction of the PH domain–bearing tyrosine kinase BTK |
